Measurements reported in patent publication US5462926A (Biomeasure, Inc., priority 1993, dated 1995).
Read-outs that look alike come from different tables or passages of the source. Where a SMILES comes first, the peptide text is derived from it. Bridges are numbered along the chain shown (N, C = ends). Where no end group is shown, it is not given here. [ ]: non-standard residue; d: D form. 2Nal = N[C@@H](Cc1ccc2ccccc2c1)C(=O)O; Lys(iPr) = CC(C)NCCCC[C@H](N)C(=O)O

Assays:
rat NMB receptor = molecular target: T1, rat NMB receptor (Rattus norvegicus, UniProt P24053); assay: Binding of 125I-[D-Tyr0]NMB to NMB-R transfected BALB 3T3 cells
T1 construct: a full length NMB-preferring bombesin receptor clone generated from rat esophagus; expressed in transfected cells
T1 sequence (P24053 1-390): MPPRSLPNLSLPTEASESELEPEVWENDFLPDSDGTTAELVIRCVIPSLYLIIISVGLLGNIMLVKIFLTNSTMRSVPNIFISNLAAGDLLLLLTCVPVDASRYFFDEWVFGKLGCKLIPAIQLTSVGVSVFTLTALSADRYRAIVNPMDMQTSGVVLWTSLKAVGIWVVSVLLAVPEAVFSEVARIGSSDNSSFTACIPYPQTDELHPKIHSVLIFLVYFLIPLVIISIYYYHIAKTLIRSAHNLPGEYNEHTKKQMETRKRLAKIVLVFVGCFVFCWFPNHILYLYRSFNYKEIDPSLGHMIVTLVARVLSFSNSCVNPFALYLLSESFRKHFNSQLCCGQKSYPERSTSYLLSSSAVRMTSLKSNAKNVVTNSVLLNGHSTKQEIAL
Experimental: (§1) Cells were passaged every 3-4 days at confluence, using 0.1% trypsin in 1 mM EDTA. Rat glioblastoma C-6 tumor cells were maintained similarly and were passaged weekly at confluence. Both cell lines were cultured at 37° C. in a 5% CO2 atmosphere. Rat AR 42J pancreatic acinar cells were cultured in Dulbecco's modified Eagle's medium (DMEM) without antibiotics and supplemented with 10% (vol/vol) fetal calf serum. The incubation atmosphere consisted of 10% CO2 -90% humidified air at 37° C.

NMB receptor [1] = molecular target: T2, NMB receptor (Rattus norvegicus, UniProt P24053); assay: NMB membrane receptor assay, 125I-NMB, rat olfactory bulb membranes; type: binding; design: Membranes were prepared from rat olfactory bulb (NMB membrane receptor assay); from tissue; host or cells: rat olfactory bulb membranes; settings: Cheng method; unit inferred; read-out: affinity, 125I-NMB, Rat Olfactory bulb membranes (neuromedin B receptors)
T2 sequence (P24053 1-390): T1 sequence (P24053 1-390)

somatostatin receptors = molecular target: T3, somatostatin receptors (Rattus norvegicus, UniProt P30680); assay: Somatostatin membrane receptor assay, 125I-[Tyr11]SS-14, AR 42J cell membranes; type: binding; settings: Cheng method; table prints no unit (b360 gives nM for a Table 4 value); read-out: affinity, 125I-[Tyr11]SS-14, AR 42J Cell Membranes (somatostatin receptors)
T3 construct: endogenous in cells; host or cells: rat AR 42J pancreatic acinar tumor cell membranes

mu opioid receptors = molecular target: T4, mu opioid receptors (Rattus norvegicus, UniProt P33535); assay: Mu opioid membrane assay, [3H]DAGO, rat forebrain membranes; type: binding; settings: Cheng method; unit inferred; read-out: affinity, [3H]DAGO, Rat Forebrain membranes (mu opioid receptors)
T4 construct: rat forebrain (TRH, mu and delta opioid membrane assays); from tissue; host or cells: rat forebrain membranes

GRP receptor [2] = molecular target: T5, GRP receptor (Rattus norvegicus, UniProt P52500); assay: GRP membrane receptor assay, 125I-[Tyr4]Bn, AR 42J cell membranes; type: binding; design: endogenous in cells; host or cells: rat AR 42J pancreatic acinar tumor cell membranes; settings: read-out: affinity, 125I-[Tyr4]Bn, AR 42J Cell Membranes (GRP receptors); Cheng method; unit inferred
[3] = molecular target: T6, GRP receptors on rat pancreatic acini (Rattus norvegicus, UniProt P52500); assay: Binding of 125I-[Tyr4]bombesin to pancreatic acini; settings: read-out: Ki 125I-[Tyr4]Bn Binding, GRP Receptor, Rat Pancreatic Acini; Ki by Cheng method
T6 construct: from tissue; host or cells: dispersed pancreatic acini
Description: Nonsaturable binding was<10% of total binding in all experiments.

NMB receptor [4] = molecular target: T2, NMB receptor; assay: [3H]inositol phosphates in NMB-R transfected cells (alone or NMB-stimulated); type: cell-based; design: a full length NMB-preferring bombesin receptor clone generated from rat esophagus; expressed in transfected cells; settings: NMB-R transfected cells; for IC50: 3 nM NMB
Experimental: as §1, with “As described previously [Wada, E., et al. Neuron 6:421 (1991)], BALB 3T3 cells expressing a stably transfected rat NMB receptor (NMB-R transfected cells) were obtained using calcium phosphate precipitation of a full length NMB-preferring bombesin receptor clone generated from rat esophagus and subcloned into a modified version of the pCD2 plasmid. Cells” for “Cells”
Measurement of phosphoinositides
Total phosphoinositides in C-6 cells and in NMB-R transfected cells were determined as described previously, with minor modifications [Benya, R. V. et al. Mol. Pharmacol. 42:1058 (1992); and Wang, L-H. et al. Biochem. Jo 286:641 (1992)]. Cells were grown to confluence in 24-well plates and then loaded with 100 μCi/ml myo-[2-^3 H]inositol in Dulbecco's modified essential medium with 2% fetal bovine serum at 37° C. for 48 hrs. Cells were washed and incubated in phosphoinositide buffer (standard buffer additionally containing 10 mM LiCl, 20 mM HEPES, 2 mM CaCl2, 2% BSA, and 1.2 mM MgSO4) for 15 min and then for 60 min at 37° C. with agonists at various concentrations or with 3 nM NMB (a half-maximal effective concentration) and possible antagonists at different concentrations. Reactions were halted using ice-cold 1% HCl in methanol, and the inositol phosphates (IP) were isolated as described previously [Bologna, M. et al. Cancer 63:1714 (1989); and Endo, T. et al. J. Endocrinolo 131:313 (1991)]. Briefly, after loading of the anion exchange column, free [^3 H]glycerophosphorylinositol was removed by washing with 5 mM disodium tetraborate in 60 mM sodium formate. Total [^3 H]inositol phosphates were then eluted using 100 mM formic acid in 1.0M ammonium formate as described previously [Benya, R. V. et al. Mol. Pharmacol. 42:1058 (1992); and Wang, L-H. et al. Biochem. J. 286:641 (1992 )].

[5] = molecular target: T7, NMB receptors on C-6 cells (Rattus norvegicus, UniProt P24053); assay: Binding of 125I-[D-Tyr0]NMB to C-6 glioblastoma cells; settings: Ki by Cheng method, read-out: Ki 125I-NMB Binding, NMB Receptor, C-6 Cells
T7 construct: endogenous in cells; host or cells: rat glioblastoma C-6 cells
T7 sequence (P24053 1-390): T1 sequence (P24053 1-390)
Experimental: Binding of ^125 I-[D-Tyr^0 ]NMB to C-6 glioblastoma and NMB-R transfected cells
Binding studies using rat glioblastoma C-6 or NMB-R transfected cells were performed as described previously [Benya, R. V. et al. Mol. Pharmacol. 42:1058 (1992); and Wang, L-H. et al. Biochem. J. 286:641 (1992)] by suspending disaggregated cells in binding buffer, which was composed of standing buffer ([…], 7.7 mM KCl, 1.0 mM EGTA, 0.02% soybean trypsin inhibitor) additionally containing 50 mM HEPES, 1 mM MgCl2, 1.5 mM CaCl2, 2.2 mM KH2 PO4, 0,015% glutamine, and 0.2% BSA (w/v) (pH 7.4). Incubations contained 75 pM ^125 I-[D-Tyr^0 ]NMB and 15×10^6 C-6 cells/ml or 2×10^6 NMB-R transfected cells/ml, for 60 min at 22° C. Nonsaturable binding of ^125 I-[D-Tyr^0 ]NMB was the amount of radioactivity associated with C-6 cells or NMB-R transfected cells when the incubation mixture contained […] NMB. Nonsaturable binding was<15% of total binding in all experiments; all values are reported herein as saturable binding (i.e., total minus nonsaturable binding).

GRP receptor [6] = molecular target: T5, GRP receptor; assay: Amylase release from rat pancreatic acini (alone or Bn-stimulated); type: cell-based; design: from tissue; host or cells: dispersed pancreatic acini
Experimental: pancreatic acini or [^3 H]myo[2H]inositolloaded NMBR transfected cell
were incubated either with no additives, the somatostatin octapeptide
analog, Bn, or NMB, or a combination for 30 min at 37° C.. Amylase
release from pancreatic acini was expressed at the indicated percent of
the total cellular amylase released during the incubation. [^3 H]IP i
expressed in dpm's. To test for inhibitory effects, the effect of
somatostatin analog (10 μM) was determined on 0.3 nM Bnstimulated

T5 sequence (P52500 whole entry): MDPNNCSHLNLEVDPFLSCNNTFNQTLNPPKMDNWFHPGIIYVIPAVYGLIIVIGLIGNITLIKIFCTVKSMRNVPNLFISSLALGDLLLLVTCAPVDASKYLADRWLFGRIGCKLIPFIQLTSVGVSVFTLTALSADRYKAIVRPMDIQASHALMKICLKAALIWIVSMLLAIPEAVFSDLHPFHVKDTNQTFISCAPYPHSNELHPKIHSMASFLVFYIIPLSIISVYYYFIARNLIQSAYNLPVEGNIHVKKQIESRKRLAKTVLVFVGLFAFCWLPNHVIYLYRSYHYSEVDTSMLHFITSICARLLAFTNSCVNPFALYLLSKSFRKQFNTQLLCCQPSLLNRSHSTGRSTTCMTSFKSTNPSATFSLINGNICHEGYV
T4 sequence (P33535 whole entry): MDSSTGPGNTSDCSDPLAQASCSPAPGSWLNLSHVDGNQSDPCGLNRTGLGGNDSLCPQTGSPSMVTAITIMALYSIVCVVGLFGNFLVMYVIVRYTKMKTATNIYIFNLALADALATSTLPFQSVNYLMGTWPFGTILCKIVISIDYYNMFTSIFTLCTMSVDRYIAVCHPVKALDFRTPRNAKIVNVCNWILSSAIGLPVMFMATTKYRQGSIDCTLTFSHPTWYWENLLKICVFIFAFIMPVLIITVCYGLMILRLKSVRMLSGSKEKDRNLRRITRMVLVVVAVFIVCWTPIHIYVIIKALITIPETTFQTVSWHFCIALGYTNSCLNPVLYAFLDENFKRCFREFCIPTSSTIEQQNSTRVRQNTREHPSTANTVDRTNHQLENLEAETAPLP
T3 sequence (P30680 whole entry): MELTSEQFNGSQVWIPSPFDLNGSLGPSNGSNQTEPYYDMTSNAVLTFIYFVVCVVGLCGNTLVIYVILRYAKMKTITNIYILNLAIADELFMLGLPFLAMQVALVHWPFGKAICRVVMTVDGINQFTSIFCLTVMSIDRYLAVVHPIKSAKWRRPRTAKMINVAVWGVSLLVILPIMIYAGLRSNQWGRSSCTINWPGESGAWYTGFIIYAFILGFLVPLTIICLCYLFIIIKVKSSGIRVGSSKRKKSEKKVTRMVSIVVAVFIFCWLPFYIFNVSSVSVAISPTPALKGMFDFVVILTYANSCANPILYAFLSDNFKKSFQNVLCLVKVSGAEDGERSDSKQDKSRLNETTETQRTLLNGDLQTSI
T6 sequence (P52500 whole entry): as the sequence (P52500 whole entry) above

Ki (rat NMB receptor; NMB-R transfected BALB 3T3 cells, Ki by Cheng method, read-out: Ki 125I-NMB Binding, NMB Receptor, Transfected Cells) | fold by which cyclo SS-octa is more potent than the analog, 125I-NMB binding (rat NMB receptor; NMB-R transfected cells) | Ki (rat NMB receptor; NMB-R transfected cells, value or range given for a group, read-out: K1, 125I-NMB binding to NMB-R transfected cells (text)) | Ki [3] | IC50 (NMB receptor [4]; read-out: IC50 NMB-stimulated [3H]IP, NMB Receptor, Transfected Cells) | IC50 (NMB receptor [4]; read-out: IC50 NMB-stimulated [3H]IP, Transfected Cells (values in μM)) | [3H]IP, analog Alone (10 μM) (NMB receptor [4]; analog 10 μM alone, control 13 ± 3) | [3H]IP, analog Plus NMB (3 nM) (NMB receptor [4]; analog 10 μM plus NMB 3 nM, NMB without analog 186 ± 58) | Ki [5] | Amylase Release, analog Alone (10 μM) (GRP receptor [6]; analog 10 μM alone, control 4 ± 1) | Amylase Release, analog Plus Bn (0.3 nM) (GRP receptor [6]; analog 10 μM plus Bn 0.3 nM, Bn without analog 15 ± 1) | IC50 (GRP receptor [6]; read-out: IC50 Amylase Release, GRP Receptor, Rat Pancreatic Acini) | Compound | Kd (rat NMB receptor; NMB-R transfected cells, read-out: Kd of NMB for NMB receptors without cyclo SS-octa) | Ki (NMB receptor [1]) | Ki (somatostatin receptors) | Ki (mu opioid receptors) | Ki (GRP receptor [2])
– | – | – | – | – | – | – | – | – | – | – | – | CSCC[C@H](NC(=O)[C@H](Cc1ccccc1)NC(=O)[C@H](Cc1c[nH]cn1)NC(=O)CNC(=O)[C@@H](NC(=O)[C@H](C)NC(=O)[C@H](Cc1c[nH]c2ccccc12)NC(=O)[C@H](CC(C)C)NC(=O)[C@H](CC(N)=O)NC(=O)CN)[C@@H](C)O)C(N)=O [NMB, neuromedin B, reference compound] | 3.1 ± 0.2 nM | 1.1 ± 0.2 nM | > 10000 nM | > 10000 nM | 19 ± 1 nM
– | – | – | – | – | – | – | – | – | – | – | – | gastrin-releasing peptide (VPLPAGGGTVLTKMYPRGNHWAVGHLM; ends and bridges not checked; UniProt P07492 24-50, looked up) [GRP, mammalian bombesin-related peptide, from Peninsula Laboratories, reference compound] | – | 297 ± 15 nM | > 10000 nM | > 10000 nM | –
2330 ± 397 nM | 9 fold | 1400 to 2300 nM | 38100 ± 21500 nM | 9.9 ± 2.31 µM | 7.2 to 9.8 µM | 11 ± 1 dym × 10^3 | 67 ± 7 dym × 10^3 | 1140 ± 105 nM | 4 ± 2 % total | 13 ± 2 % total | > 10000 nM | CC(C)NCCCC[C@@H]1NC(=O)[C@@H](Cc2c[nH]c3ccccc23)NC(=O)[C@H](Cc2ccc(O)cc2)NC(=O)[C@@H](NC(=O)[C@H](N)Cc2ccccc2)CSSC[C@@H](C(=O)N[C@@H](Cc2ccc3ccccc3c2)C(N)=O)NC(=O)[C@H]([C@@H](C)O)NC1=O [Analog #15, H2 -D-phe-Cys-Tyr-D-Trp-Lys(ipr)-Thr-Cys-Nal-NH2] (H-[dF]CY[dW][Lys(iPr)]TC[2Nal]-NH2; disulfide 2-7) | – | – | – | – | –
